For experiment [1], the target named is ABL (Homo sapiens (Human), UniProt P00519). Kind of experiment: Biochemical kinase analysis, ABL. The following applies: kinase inhibition assay. How it is done:
(§1) Reagents and materials: ABL (ThermoFisher, Cat. No. PV3585), ABL^T315I(Thermo Fisher, Cat. No. PR7429B), Ret (Carna, Cat. No. 08-159-10 ug), RET^V804M, Active (Signalchem, Cat. No. R02-12GG), ATP (Sigma, Cat. No. A7699-1G), DMSO (Sigma, Cat. No. D2650), 96-well plate (Corning, Cat. No. 3365), 384-well plate (Greiner, Cat. No. 784076), buffer solution (Thermo Fisher, Cat. No. PR4876B).
(§2) Compound formulation: The test compounds were dissolved in DMSO to prepare a 20 mM stock solution. Before use, the compounds were diluted in DMSO to 0.1 mM, and diluted into 11 concentrations with a 3-fold gradient. When addition, dilutions of 4-fold final concentration were then made with buffer solution.
(§3) Kinase assay method: After preparing the buffer, the enzyme was mixed with pre-formulated and diluted compounds of different concentrations in duplicate for each concentration, and placed at room temperature for 30 minutes. The corresponding substrate and ATP were added thereto, and reacted at room temperature for 60 minutes (both a negative and a positive control were set). After the reaction, antibody was added for detection, Evnvision detection was carried out after 60 minutes incubation at room temperature, and data was collected. Data analysis and fitting were made according to XLfit5 software.

In experiment [2] the target is ABL^T315I (Homo sapiens (Human), UniProt P00519, T315I). The experiment can be described thus: Biochemical kinase analysis, ABL T315I. The following applies: kinase inhibition assay. The method, then:
as §1, §2, §3

The target in experiment [3] is Ret (Homo sapiens (Human), UniProt P07949). Kind of experiment: Biochemical kinase analysis, Ret. Particulars: kinase inhibition assay. The method, then: as §1, §2, §3
Experiment [4] deals with RET^V804M (Homo sapiens (Human), UniProt P07949, V804M). The experiment can be described thus: Biochemical kinase analysis, RET V804M. The following applies: kinase inhibition assay. How it is done:
as §1, §2, §3

For experiment [5], the system named is Ba/F3 parental cells. The experiment can be described thus: Cell proliferation analysis, Ba/F3 parental. It counts as cell-based. Particulars: Mus musculus, BaF3, 72 h; 3 days, CellTiter-Glo, 8 ng/ml IL-3. How it is done: (§4) The inhibitory effect of the example compounds on Ba/F3 parental, Ba/F3 Bcr-Abl^T315I, K562, Ba/F3 KIF5B-RET, BaF3 FLT3-ITD cell activity was determined.
(§5) Materials and reagents: RPMI-1640 medium (GIBCO, Catalog No. A10491-01), fetal bovine serum (GIBCO, Catalog No. 10099141), antibiotics (Penicillin-Streptomycin), IL-3(PeproTech), promycin; cell lines: Ba/F3 parental, Ba/F3 Bcr-Abl^T315I, Ba/F3 KIF5B-RET, BaF3 FLT3-ITD, (purchased from American type culture collection, ATCC), K562 live cell detection kit CellTiter-Glo4(Promega, Catalog No. G7572), 96-well black wall transparent flat bottom cell culture plate (Corning, Catalog No. 3340).
(§6) Test method: 1. Preparation of cell plate: Ba/F3 parental, Ba/F3 Bcr-Abl^T315I K563, Ba/F3 KIFSB-RET, BaF3 FLT3-ITD cells were respectively seeded in 96-well plates, and 8 ng/ml IL-3 was added to the Ba/F3 cells, and the cell plates were placed in a carbon dioxide incubator and cultured overnight. 2. The test compounds were dissolved in DMSO, 9 compound concentrations were made with a 3.16-fold gradient dilution in triplicate. 3. Treatment of the cells with compounds: The compounds were transferred to the cell plate with a starting concentration of 10 μM. The cell plate was placed in a carbon dioxide incubator for 3 days. 4. Detection: CellTiter-Glo agent was added to the cell plate, and incubated at room temperature for 30 minutes to stabilize the luminous signal. PerkinElmer Envision multi-label analyzer was used for reading, wherein A represents IC50≤50 nM, B represents IC50 is 50-100 nM, C represents IC50 is 100-500 nM, D represents IC50 is 500-1000 nM, […].
On the technique in general: In ATP-based viability assays light output follows the ATP content of the culture.

For experiment [6], the system named is K562 cells. Kind of experiment: Cell proliferation analysis, K562. The format is cell-based. The following applies: Homo sapiens, K562, 72 h; 3 days, CellTiter-Glo. How it is done:
as §4, §5, §6

Experiment [7] concerns Ba/F3 BCR-ABL cells. Kind of experiment: Cell proliferation analysis, Ba/F3 BCR-ABL. The following applies: Mus musculus, BaF3, 72 h; 3 days, CellTiter-Glo. It counts as cell-based. The method, then: [Worded in the source for another variant; this variant is reported under the same test.] as §4, §5, §6
The test system of experiment [8] is Ba/F3 Bcr-Abl^T315I cells. The experiment can be described thus: Cell proliferation analysis, Ba/F3 Bcr-Abl T315I. Particulars: Mus musculus, BaF3, 72 h; 3 days, CellTiter-Glo; read-out: IC50 (nM) Ba/F3 BCR-ABL^T315. It counts as cell-based. The method, then:
as §4, §5, §6

The subject of experiment [9] is Ba/F3 KIF5B-RET cells. Kind of experiment: Cell proliferation analysis, Ba/F3 KIF5B-RET. The format is cell-based. The following applies: Mus musculus, BaF3, 72 h; 3 days, CellTiter-Glo. How it is done: as §4, §5, §6
In experiment [10] the test system is BaF3 FLT3-ITD cells. The experiment can be described thus: Cell proliferation analysis, BaF3 FLT3-ITD. It counts as cell-based. Particulars: Ba/F3 FLT3-ITD, 72 h; 3 days, CellTiter-Glo. The method, then: as §4, §5, §6

Sequence of Ret (P07949 29-1114): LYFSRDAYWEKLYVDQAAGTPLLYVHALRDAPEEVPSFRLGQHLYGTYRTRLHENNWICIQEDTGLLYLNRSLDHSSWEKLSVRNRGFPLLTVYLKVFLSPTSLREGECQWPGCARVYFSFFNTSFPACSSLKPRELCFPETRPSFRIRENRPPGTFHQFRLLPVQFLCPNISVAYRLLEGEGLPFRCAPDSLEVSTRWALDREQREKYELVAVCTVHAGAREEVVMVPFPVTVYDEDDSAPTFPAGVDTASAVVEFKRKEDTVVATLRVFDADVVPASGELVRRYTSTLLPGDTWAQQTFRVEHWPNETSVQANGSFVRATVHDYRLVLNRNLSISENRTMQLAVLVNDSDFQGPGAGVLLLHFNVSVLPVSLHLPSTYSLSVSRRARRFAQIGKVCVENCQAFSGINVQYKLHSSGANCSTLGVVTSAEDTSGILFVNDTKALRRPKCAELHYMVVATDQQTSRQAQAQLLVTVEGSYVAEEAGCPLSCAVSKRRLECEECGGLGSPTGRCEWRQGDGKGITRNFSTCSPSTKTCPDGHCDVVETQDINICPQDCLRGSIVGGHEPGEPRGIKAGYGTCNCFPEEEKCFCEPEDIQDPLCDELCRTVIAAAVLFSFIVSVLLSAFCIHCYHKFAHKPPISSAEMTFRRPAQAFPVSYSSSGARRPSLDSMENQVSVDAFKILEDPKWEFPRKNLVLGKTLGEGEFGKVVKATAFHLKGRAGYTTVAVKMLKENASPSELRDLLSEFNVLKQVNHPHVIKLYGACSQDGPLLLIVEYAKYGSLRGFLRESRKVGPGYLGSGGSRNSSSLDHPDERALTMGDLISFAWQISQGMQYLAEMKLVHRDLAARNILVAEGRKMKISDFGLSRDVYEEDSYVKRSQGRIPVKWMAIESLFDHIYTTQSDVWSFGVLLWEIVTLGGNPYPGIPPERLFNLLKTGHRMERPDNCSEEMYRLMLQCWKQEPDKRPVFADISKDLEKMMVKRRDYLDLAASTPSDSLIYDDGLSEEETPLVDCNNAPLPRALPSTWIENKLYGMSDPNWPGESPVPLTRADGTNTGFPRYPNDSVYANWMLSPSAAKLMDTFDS
Sequence of RET^V804M (P07949 29-1114 V804M): as the sequence (P07949 29-1114) above, with V776M counted along it

For the compound `Cc1ccc(C(=O)Nc2cccc(C(F)(F)F)c2)cc1C#Cc1cnc2c(Nc3cnn(C)c3)nccn12` [Example 2, 4-methyl-3-((8-((1-methyl-1H-pyrazol-4-yl)amino)imidazo[1,2-a]pyrazin-3-yl)ethynyl)-N-(3-(trifluoromethyl)phenyl)benzamide], the IC50 amounted to 6.65 nM in experiment [1]; 10.1 nM in [2]; 0.32 nM in experiment [3]; 2.69 nM in experiment [4]; 945 nM in experiment [5]; 0.5 nM in experiment [6]. Moreover, the IC50 in experiment [7] was determined as 5.1 nM; in experiment [8], 17 nM; in experiment [9], 6.02 nM; in experiment [10], 10 nM.
For the compound `Cc1ccc(NC(=O)c2cccc(C(F)(F)F)c2)cc1C#Cc1cnc2c(Nc3cnn(C)c3)nccn12` [Example 1, N-(4-methyl-3-((8-((1-methyl-1H-pyrazol-4-yl)amino)imidazo[1,2-a]pyrazin-3-yl)ethynyl)phenyl)-3-(trifluoromethyl)benzamide], the IC50 in [1] stood at 3.91 nM; in [2], 9.05 nM; in [3], 0.88 nM; in experiment [4], 12.2 nM; in [5], 838 nM; in experiment [6], 0.28 nM. For the same compound, the IC50 in experiment [7] was 5.63 nM; in [8], 15 nM; in [9], 10.1 nM; in experiment [10] it was 17.7 nM.
Take `Cc1ccc(C(=O)Nc2ccc(CN3CCN(C)CC3)c(C(F)(F)F)c2)cc1C#Cc1cnc2c(Nc3cnn(C)c3)ccnn12` [Example 15, 4-methyl-3-((8-((1-methyl-1H-pyrazol-4-yl)amino)imidazo[1,2-b]pyridazin-3-yl)ethynyl)-N-(4-((4-methylpiperazin-1-yl)methyl)-3-(trifluoromethyl)phenyl)benzamide]: the IC50 was 3.24 nM in experiment [1]; 4.28 nM in experiment [2]; 0.37 nM in experiment [3]; 1.42 nM in [4]; 280 nM in experiment [5]; 0.76 nM in experiment [6]. Moreover, the IC50 was 12.8 nM in [7], 25.2 nM in experiment [8], 4.56 nM in experiment [9] and 1.14 nM in experiment [10].

The values above are taken from patent publication US11746110B2, “Alkynyl (hetero) aromatic ring compounds used for inhibiting protein kinase activity” (Shenzhen TargetRx, Inc., priority 2018, dated 2023).
